“And” between values parts separate entries of the source, which are not always exact repeats. Identical values can stand only once. Inconclusive results and toxic doses are left out.
System: B6C3F1 mice, ip Sarcoma M5076, median survival T/C
Experiment: NCI In Vivo Anticancer Drug Screen. Data for tumor model Sarcoma M5076 (intraperitoneal) in B6C3F1 mice
Conditions: endpoint: median survival time, higher = longer survival
Experimental: The antitumor activity of compounds was measured in mice bearing transplantable tumors. Survival or tumor size were measured and the results are expressed as the measurement made in the treated group (T) divided by the measurement made in the vehicle treated control group (C). The tumor model used in this assay is Sarcoma M5076 (intraperitoneal) in B6C3F1 mice

[1] = dose: 25.0 mg/kg/injection, schedule: Q04DX004 (ip), vehicle: saline
[2] = dose: 50.0 mg/kg/injection, schedule: Q04DX004 (ip), vehicle: saline
[3] = dose: 50.0 mg/kg/injection, schedule: Q04DX004 (ip), vehicle: Klucel (hydroxypropylcellulose) (HPC)
[4] = dose: 100.0 mg/kg/injection, schedule: Q04DX004 (ip), vehicle: Klucel (hydroxypropylcellulose) (HPC)
[5] = dose: 200.0 mg/kg/injection, schedule: Q04DX004 (ip), vehicle: Klucel (hydroxypropylcellulose) (HPC)
[6] = dose: 50.0 mg/kg/injection, schedule: Q04DX004 (ip), vehicle: saline with Tween-80
[7] = dose: 100.0 mg/kg/injection, schedule: Q04DX004 (ip), vehicle: saline with Tween-80
[8] = dose: 25.0 mg/kg/injection, schedule: Q04DX004 (ip), vehicle: saline with Tween-80
[9] = dose: 100.0 mg/kg/injection, schedule: Q04DX004 (ip), vehicle: saline
[10] = dose: 200.0 mg/kg/injection, schedule: Q04DX004 (ip), vehicle: saline
[11] = dose: 400.0 mg/kg/injection, schedule: Q04DX004 (ip), vehicle: Klucel (hydroxypropylcellulose) (HPC)
[12] = dose: 400.0 mg/kg/injection, schedule: Q04DX004 (ip), vehicle: saline with Tween-80

Compound: CC[C@](C)(O)C(=O)O[C@H]1C(=O)O[C@@H]2C[C@H]3C(C)=CC(=O)[C@@H](O)[C@]3(C)[C@H]3[C@@]4(O)OC[C@]32[C@@H]1[C@@H](C)[C@H]4O
- T/C (dose: 0.03 mg/kg/injection, schedule: Q04DX004 (ip), vehicle: saline): 102 % of control
- T/C (dose: 0.06 mg/kg/injection, schedule: Q04DX004 (ip), vehicle: saline): 117 % of control
- T/C (dose: 0.25 mg/kg/injection, schedule: Q04DX004 (ip), vehicle: saline): 100 % of control

Compound: O=NNc1ccccn1
- T/C (dose: 3.13 mg/kg/injection, schedule: Q04DX004 (ip), vehicle: saline): 109 % of control
- T/C (dose: 6.25 mg/kg/injection, schedule: Q04DX004 (ip), vehicle: saline): 117 % of control
- T/C (dose: 18.0 mg/kg/injection, schedule: Q04DX004 (ip), vehicle: saline): 172 % of control
- T/C [1]: 160 % of control
- T/C (dose: 30.0 mg/kg/injection, schedule: Q04DX004 (ip), vehicle: saline): 156 % of control
- T/C [2]: 184 % of control

Compound: COc1ccccc1NC(=O)C1C(=O)C(=O)N(c2ccccc2OC)C1=O (configuration not stated)
- T/C [3]: 105 % of control
- T/C [4]: 97 % of control
- T/C [5]: 96 % of control

Compound: C=C1C(O)C2(O)OCC34C(CC5C(C)=CC(=O)C(O)C5(C)C23)OC(=O)C(OC(=O)C/C=C(\C)CCCCC)C14 (configuration not stated)
- T/C (dose: 1.0 mg/kg/injection, schedule: Q04DX004 (ip), vehicle: saline + alcohol): 105 % of control and 107 % of control
- T/C (dose: 2.0 mg/kg/injection, schedule: Q04DX004 (ip), vehicle: saline + alcohol): 104 % of control and 122 % of control
- T/C (dose: 4.0 mg/kg/injection, schedule: Q04DX004 (ip), vehicle: saline + alcohol): 102 % of control and 108 % of control

Compound: CC1=Nc2cc(N)nn2C(=O)C1
- T/C [6]: 96 % of control
- T/C [7]: 99 % of control

Compound: ClCCCN1CCN(CCCl)CC1
- T/C (dose: 0.63 mg/kg/injection, schedule: Q04DX004 (ip), vehicle: saline with Tween-80): 99 % of control
- T/C (dose: 1.25 mg/kg/injection, schedule: Q04DX004 (ip), vehicle: saline with Tween-80): 118 % of control
- T/C (dose: 10.0 mg/kg/injection, schedule: Q04DX004 (ip), vehicle: saline with Tween-80): 175 % of control
- T/C (dose: 20.0 mg/kg/injection, schedule: Q04DX004 (ip), vehicle: saline with Tween-80): 94 % of control

Compound: c1ccc2c(c1)oc1cc3c(cc12)ncc1cccn13
- T/C (dose: 6.25 mg/kg/injection, schedule: Q04DX004 (ip), vehicle: saline with Tween-80): 95 % of control
- T/C (dose: 12.5 mg/kg/injection, schedule: Q04DX004 (ip), vehicle: saline with Tween-80): 90 % of control
- T/C [8]: 91 % of control

Compound: CCN(CC)CCCC(C)Nc1c2ccc(Cl)cc2nc2ccc(OC)cc12 (configuration not stated)
- T/C [1]: 111 % of control
- T/C [2]: 115 % of control
- T/C [9]: 112 % of control
- T/C [10]: 91 % of control

Compound: O=C1CN2Cc3c(sc4c3CCCC4)N=C2N1
- T/C (dose: 37.5 mg/kg/injection, schedule: Q04DX004 (ip), vehicle: Klucel (hydroxypropylcellulose) (HPC)): 103 % of control
- T/C (dose: 75.0 mg/kg/injection, schedule: Q04DX004 (ip), vehicle: Klucel (hydroxypropylcellulose) (HPC)): 104 % of control
- T/C (dose: 150.0 mg/kg/injection, schedule: Q04DX004 (ip), vehicle: Klucel (hydroxypropylcellulose) (HPC)): 100 % of control
- T/C (dose: 300.0 mg/kg/injection, schedule: Q04DX004 (ip), vehicle: Klucel (hydroxypropylcellulose) (HPC)): 103 % of control
- T/C (dose: 600.0 mg/kg/injection, schedule: Q04DX004 (ip), vehicle: Klucel (hydroxypropylcellulose) (HPC)): 100 % of control

Compound: O=C1[C@@H]2C3C=CC([C@H]4C(=O)N(CO)C(=O)[C@@H]34)[C@@H]2C(=O)N1CO
- T/C [4]: 102 % of control
- T/C [5]: 102 % of control
- T/C [11]: 98 % of control

Compound: O=c1ncccn1[C@@H]1O[C@H](CO)[C@H](O)C1O (some centres not stated)
- T/C (dose: 25.0 mg/kg/injection, schedule: Q01DX009 (ip), vehicle: saline): 99 % of control
- T/C (dose: 50.0 mg/kg/injection, schedule: Q01DX009 (ip), vehicle: saline): 103 % of control
- T/C (dose: 100.0 mg/kg/injection, schedule: Q01DX009 (ip), vehicle: saline): 104 % of control
- T/C (dose: 125.0 mg/kg/injection, schedule: Q04DX004 (ip), vehicle: saline): 92 % of control
- T/C (dose: 200.0 mg/kg/injection, schedule: Q01DX009 (ip), vehicle: saline): 110 % of control
- T/C (dose: 250.0 mg/kg/injection, schedule: Q04DX004 (ip), vehicle: saline): 94 % of control
- T/C (dose: 400.0 mg/kg/injection, schedule: Q01DX009 (ip), vehicle: saline): 97 % of control
- T/C (dose: 500.0 mg/kg/injection, schedule: Q04DX004 (ip), vehicle: saline): 89 % of control
- T/C (dose: 1000.0 mg/kg/injection, schedule: Q04DX004 (ip), vehicle: saline): 92 % of control

Compound: N#CC1C(=O)NC(=O)C(C#N)C1c1c2ccccc2cc2ccccc12 (configuration not stated)
- T/C [3]: 96 % of control
- T/C [4]: 103 % of control
- T/C [5]: 94 % of control
- T/C [11]: 106 % of control
- T/C (dose: 800.0 mg/kg/injection, schedule: Q04DX004 (ip), vehicle: Klucel (hydroxypropylcellulose) (HPC)): 102 % of control

Compound: O=C(O)Cc1cccc2c(=O)cc(-c3ccccc3)oc12
- T/C (dose: 6.25 mg/kg/injection, schedule: Q04DX004 (ip), vehicle: suspension in saline): 98 % of control
- T/C (dose: 12.5 mg/kg/injection, schedule: Q04DX004 (ip), vehicle: suspension in saline): 95 % of control
- T/C (dose: 25.0 mg/kg/injection, schedule: Q04DX004 (ip), vehicle: suspension in saline): 102 % of control
- T/C (dose: 50.0 mg/kg/injection, schedule: Q04DX004 (ip), vehicle: suspension in saline): 100 % of control
- T/C (dose: 100.0 mg/kg/injection, schedule: Q04DX004 (ip), vehicle: suspension in saline): 102 % of control

Compound: CC(=O)C1C(=O)C(=O)N(Cc2ccccc2)C1=O (configuration not stated)
- T/C (dose: 46.88 mg/kg/injection, schedule: Q04DX004 (ip), vehicle: Klucel (hydroxypropylcellulose) (HPC)): 98 % of control
- T/C (dose: 93.75 mg/kg/injection, schedule: Q04DX004 (ip), vehicle: Klucel (hydroxypropylcellulose) (HPC)): 95 % of control
- T/C (dose: 187.5 mg/kg/injection, schedule: Q04DX004 (ip), vehicle: Klucel (hydroxypropylcellulose) (HPC)): 99 % of control
- T/C (dose: 375.0 mg/kg/injection, schedule: Q04DX004 (ip), vehicle: Klucel (hydroxypropylcellulose) (HPC)): 98 % of control

Compound: CCOc1ccc(N2C(=O)C(=O)C(C(C)=O)C2=O)cc1 (configuration not stated)
- T/C [3]: 102 % of control
- T/C [4]: 102 % of control
- T/C [5]: 101 % of control
- T/C [11]: 100 % of control

Compound: c1ccc(-c2nc3cc4c(cc3n3cccc23)oc2ccccc24)cc1
- T/C [8]: 90 % of control
- T/C [6]: 101 % of control
- T/C [12]: 91 % of control

Compound: COc1ccccc1N1C(=O)C(=O)C(C(C)=O)C1=O (configuration not stated)
- T/C (dose: 43.75 mg/kg/injection, schedule: Q04DX004 (ip), vehicle: Klucel (hydroxypropylcellulose) (HPC)): 115 % of control
- T/C (dose: 87.5 mg/kg/injection, schedule: Q04DX004 (ip), vehicle: Klucel (hydroxypropylcellulose) (HPC)): 98 % of control
- T/C (dose: 175.0 mg/kg/injection, schedule: Q04DX004 (ip), vehicle: Klucel (hydroxypropylcellulose) (HPC)): 100 % of control
- T/C (dose: 350.0 mg/kg/injection, schedule: Q04DX004 (ip), vehicle: Klucel (hydroxypropylcellulose) (HPC)): 98 % of control

Compound: S=C(NCNC(=S)c1ccncc1)c1ccncc1
- T/C [8]: 96 % of control
- T/C [6]: 99 % of control
- T/C [7]: 92 % of control
- T/C (dose: 200.0 mg/kg/injection, schedule: Q04DX004 (ip), vehicle: saline with Tween-80): 102 % of control
- T/C [12]: 107 % of control

Compound: CCOc1ccc(C(C)c2cc3c(cc2OC)OCO3)cc1 (configuration not stated)
- T/C (dose: 62.5 mg/kg/injection, schedule: Q04DX004 (ip), vehicle: distilled water + Tween-80): 99 % of control and 102 % of control
- T/C (dose: 125.0 mg/kg/injection, schedule: Q04DX004 (ip), vehicle: distilled water + Tween-80): 102 % of control and 124 % of control
- T/C (dose: 250.0 mg/kg/injection, schedule: Q04DX004 (ip), vehicle: distilled water + Tween-80): 117 % of control

Compound: O=S(=O)(O)c1cc(N=C=S)ccc1/C=C/c1ccc(N=C=S)cc1S(=O)(=O)O
- T/C [1]: 100 % of control
- T/C [2]: 103 % of control
- T/C [9]: 110 % of control
- T/C [10]: 112 % of control

Source: PubChem BioAssay AID292 (DTP/NCI, 2004)
